In assay [1] the target is Epidermal growth factor receptor (Homo sapiens, UniProt P00533). As to the kind of experiment: Inhibition of the tyrosine kinase activity of the human epidermal growth factor receptor (EGFR).
Assay [2] deals with NIH3T3. As to the kind of experiment: Compound was tested for the concentration necessary to inhibit swiss 3T3 Mouse Fibroblast cell growth rate by 50%. The assay is classed as functional, cell-based.

A value given as a limit tells only on which side of the number the result lay.

Chain of Epidermal growth factor receptor (P00533 whole entry): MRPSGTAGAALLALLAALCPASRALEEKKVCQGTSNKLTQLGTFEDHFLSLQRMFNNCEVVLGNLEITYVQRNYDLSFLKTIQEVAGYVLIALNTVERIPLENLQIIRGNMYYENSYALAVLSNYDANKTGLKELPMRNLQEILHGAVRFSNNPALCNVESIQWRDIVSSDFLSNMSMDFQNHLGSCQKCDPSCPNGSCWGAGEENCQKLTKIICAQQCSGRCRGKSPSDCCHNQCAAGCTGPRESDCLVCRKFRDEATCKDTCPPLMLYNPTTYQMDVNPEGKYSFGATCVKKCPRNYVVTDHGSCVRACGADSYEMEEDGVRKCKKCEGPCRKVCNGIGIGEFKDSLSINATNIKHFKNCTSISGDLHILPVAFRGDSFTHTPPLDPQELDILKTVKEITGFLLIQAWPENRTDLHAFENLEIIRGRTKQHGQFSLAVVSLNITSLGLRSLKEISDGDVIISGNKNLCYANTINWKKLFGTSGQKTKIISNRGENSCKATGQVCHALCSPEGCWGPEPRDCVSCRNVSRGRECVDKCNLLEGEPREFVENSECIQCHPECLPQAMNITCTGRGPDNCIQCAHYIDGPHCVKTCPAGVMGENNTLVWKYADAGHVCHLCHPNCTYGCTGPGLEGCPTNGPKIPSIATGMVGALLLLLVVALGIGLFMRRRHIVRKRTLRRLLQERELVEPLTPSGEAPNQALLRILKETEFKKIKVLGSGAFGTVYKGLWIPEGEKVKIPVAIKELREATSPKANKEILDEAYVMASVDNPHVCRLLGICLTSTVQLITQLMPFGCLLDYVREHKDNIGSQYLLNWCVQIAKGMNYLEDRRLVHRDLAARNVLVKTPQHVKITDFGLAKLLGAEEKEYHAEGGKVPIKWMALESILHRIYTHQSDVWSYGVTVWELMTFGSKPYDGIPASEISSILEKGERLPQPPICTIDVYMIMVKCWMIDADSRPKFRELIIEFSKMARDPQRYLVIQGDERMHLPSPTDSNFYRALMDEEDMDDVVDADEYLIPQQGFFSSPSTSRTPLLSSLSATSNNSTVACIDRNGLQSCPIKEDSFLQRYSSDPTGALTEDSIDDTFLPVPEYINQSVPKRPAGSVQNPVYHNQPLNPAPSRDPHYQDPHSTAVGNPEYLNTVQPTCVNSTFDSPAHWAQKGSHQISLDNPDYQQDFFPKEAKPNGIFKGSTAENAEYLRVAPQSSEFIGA

Take `O=C(CCc1c(SSc2[nH]c3ccccc3c2CCC(=O)NCCc2ccccc2)[nH]c2ccccc12)NCCc1ccccc1`: half-maximal inhibition in assay [1] (IC50) required 24 µM. Same read-out and setting: under `COC(=O)c1ccc(CNC(=O)CCc2c(SSc3[nH]c4ccccc4c3CCC(=O)NCc3ccc(C(=O)OC)c(O)c3)[nH]c3ccccc23)cc1O` stands 100 µM; under `O=C(CCC1C(=S)Nc2ccccc21)NCc1ccccc1` (configuration not stated), 100 µM; under `O=C(CCc1c(SSc2[nH]c3ccccc3c2CCC(=O)NCc2ccc(C(=O)O)cc2)[nH]c2ccccc12)NCc1ccc(C(=O)O)cc1`, 7.4 µM. On the same count and under the same terms, under `O=C(CC1C(=S)Nc2ccccc21)NCc1ccccc1` (configuration not stated) stands 100 µM. The same measure, in the same setting: under `O=C(CCCc1c(SSc2[nH]c3ccccc3c2CCCC(=O)NCc2ccccc2)[nH]c2ccccc12)NCc1ccccc1` stands 100 µM; under `O=C(CCc1c(SSc2[nH]c3ccccc3c2CCC(=O)Nc2ccccc2)[nH]c2ccccc12)Nc1ccccc1`, 25 µM. Consider `N#CCCc1c(SSc2[nH]c3ccccc3c2CCC#N)[nH]c2ccccc12`, for which half-maximal inhibition in assay [1] (IC50) was put at 47 µM. The same measure, in the same setting: under `O=C(NCc1ccccc1)C(O)Cc1c(SSc2[nH]c3ccccc3c2CC(O)C(=O)NCc2ccccc2)[nH]c2ccccc12` (configuration not stated) stands 14 µM; under `O=[N+]([O-])CCc1c(SSc2[nH]c3ccccc3c2CC[N+](=O)[O-])[nH]c2ccccc12`, 89 µM.

With `O=C(CCc1c(SSc2[nH]c3ccccc3c2CCC(=O)NCc2ccccc2)[nH]c2ccccc12)NCc1ccccc1`, the IC50 (commonly the midpoint of a concentration-inhibition curve) in assay [2] was 5.9 µM.

As for `NC(Cc1c(SSc2[nH]c3ccccc3c2CC(N)C(=O)NCc2ccccc2)[nH]c2ccccc12)C(=O)NCc1ccccc1` (configuration not stated), the IC50 in assay [2] came out at 5.3 µM; in assay [1] it was 7.6 µM. Consider `CNC(=O)CCc1c(SSc2[nH]c3ccccc3c2CCC(=O)NC)[nH]c2ccccc12`, for which the IC50 in assay [1] was 9.4 µM. Molecule `CC(=O)NC(Cc1c(SSc2[nH]c3ccccc3c2CC(NC(C)=O)C(=O)NCc2ccccc2)[nH]c2ccccc12)C(=O)NCc1ccccc1` (configuration not stated) registered an IC50 in assay [1] of 51 µM.

On to `O=C(CCc1c(SSc2[nH]c3ccccc3c2CCC(=O)NCc2ccc(C(=O)O)c(O)c2)[nH]c2ccccc12)NCc1ccc(C(=O)O)c(O)c1`, for which half-maximal inhibition in assay [1] (IC50) was put at 8.5 µM. Still for that read-out and setting: under `N#CCc1c(SSc2[nH]c3ccccc3c2CC#N)[nH]c2ccccc12` stands 32 µM; under `CC(=O)OC(Cc1c(SSc2[nH]c3ccccc3c2CC(OC(C)=O)C(=O)NCc2ccccc2)[nH]c2ccccc12)C(=O)NCc1ccccc1` (configuration not stated), 28 µM; under `O=C(NCc1ccccc1)C(Cc1c(SSc2[nH]c3ccccc3c2CC(NC(=O)C(F)(F)F)C(=O)NCc2ccccc2)[nH]c2ccccc12)NC(=O)C(F)(F)F` (configuration not stated), more than 100 µM. `CN(C)C(=O)CCc1c(SSc2[nH]c3ccccc3c2CCC(=O)N(C)C)[nH]c2ccccc12` registered an IC50 in assay [1] of 12 µM. In the case of `O=C(Cc1c(SSc2[nH]c3ccccc3c2CC(=O)NCc2ccccc2)[nH]c2ccccc12)NCc1ccccc1`, the IC50 in assay [2] came out at 2.7 µM. For `O=C(O)CCc1c(SSc2[nH]c3ccccc3c2CCC(=O)O)[nH]c2ccccc12`, half-maximal inhibition in assay [2] (IC50) was put at 60 µM.

The values above are taken from ChEMBL document CHEMBL1127622, “Tyrosine kinase inhibitors. 2. Synthesis of 2,2'-dithiobis(1H-indole-3-alkanamides) and investigation of their inhibitory activity against epidermal growth factor receptor and pp60v-src protein tyrosine kinases” (J Med Chem, 1994).
